From PubChem BioAssay (NCI)
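48-hour exposure; five concentrations; linearly interpolated endpoints. TGI: concentration producing complete growth inhibition.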

Columns and labels:
Assay in all cases: NCI anticancer screen, dose series, 48 h
HL-60(TB) leukemia = test system: HL-60(TB) leukemia
HOP-62 NSCLC = test system: HOP-62 NSCLC
K-562 leukemia = test system: K-562 leukemia
KM12 colon = test system: KM12 colon
OVCAR-5 ovarian = test system: OVCAR-5 ovarian
SK-MEL-5 melanoma = test system: SK-MEL-5 melanoma
SR leukemia = test system: SR leukemia
U251 CNS = test system: U251 CNS
DMS 114 small cell lung = test system: DMS 114 small cell lung
KM20L2 colon = test system: KM20L2 colon
LXFL 529 NSCLC = test system: LXFL 529 NSCLC
M19-MEL melanoma = test system: M19-MEL melanoma
XF 498 CNS = test system: XF 498 CNS

## O=C1c2ccccc2C(=O)N1C(=S)c1ccccc1
HL-60(TB) leukemia
  TGI: > 100 µM
HOP-62 NSCLC
  TGI: > 100 µM
K-562 leukemia
  TGI: > 100 µM
KM12 colon
  TGI: > 100 µM
OVCAR-5 ovarian
  TGI: > 100 µM
SK-MEL-5 melanoma
  TGI: > 100 µM
SR leukemia
  TGI: > 100 µM
U251 CNS
  TGI: > 100 µM

## O=C(c1ccc(Cl)cc1)N(C(=S)N1CCN(c2ccccn2)CC1)c1ccccc1
DMS 114 small cell lung
  TGI: > 100 µM
HL-60(TB) leukemia
  TGI: > 100 µM
HOP-62 NSCLC
  TGI: > 100 µM
K-562 leukemia
  TGI: > 100 µM
KM12 colon
  TGI: > 100 µM
KM20L2 colon
  TGI: > 100 µM
LXFL 529 NSCLC
  TGI: > 100 µM
M19-MEL melanoma
  TGI: > 100 µM
OVCAR-5 ovarian
  TGI: > 100 µM
SK-MEL-5 melanoma
  TGI: > 100 µM
SR leukemia
  TGI: > 100 µM
U251 CNS
  TGI: > 100 µM

## C[C@]12CCC(=O)C=C1CC[C@@H]1[C@@H]2C(=O)C[C@@]2(C)[C@H]1CC[C@]2(O)C(=O)CO
DMS 114 small cell lung
  TGI: > 100 µM
HL-60(TB) leukemia
  TGI: > 100 µM
K-562 leukemia
  TGI: > 100 µM
KM12 colon
  TGI: > 100 µM
KM20L2 colon
  TGI: > 100 µM
LXFL 529 NSCLC
  TGI: > 100 µM
M19-MEL melanoma
  TGI: > 100 µM
SK-MEL-5 melanoma
  TGI: > 100 µM
SR leukemia
  TGI: > 100 µM
U251 CNS
  TGI: > 100 µM
XF 498 CNS
  TGI: > 100 µM

## COC(=O)c1ccc(C)cc1C1CN=NC12Cc1cc(C)c(C)cc1C2=O (centres undefined)
HL-60(TB) leukemia
  TGI: 55.2 µM
HOP-62 NSCLC
  TGI: > 100 µM
K-562 leukemia
  TGI: > 100 µM
KM12 colon
  TGI: > 100 µM
OVCAR-5 ovarian
  TGI: > 100 µM
SK-MEL-5 melanoma
  TGI: 49.2 µM
SR leukemia
  TGI: > 100 µM
U251 CNS
  TGI: > 100 µM

## O=C([C@H](O)[C@@H](O)c1ccc(Br)cc1)C12CC3CC(CC(C3)C1)C2
HL-60(TB) leukemia
  TGI: > 26.5 µM
HOP-62 NSCLC
  TGI: 26.6 µM
K-562 leukemia
  TGI: > 100 µM
KM12 colon
  TGI: > 74.9 µM
OVCAR-5 ovarian
  TGI: > 72.9 µM
SK-MEL-5 melanoma
  TGI: > 56.2 µM
SR leukemia
  TGI: > 100 µM
U251 CNS
  TGI: > 36.4 µM

## O=C(Nc1ccc2ccccc2c1)Nn1cnnc1
HL-60(TB) leukemia
  TGI: > 100 µM
HOP-62 NSCLC
  TGI: > 100 µM
K-562 leukemia
  TGI: > 100 µM
KM12 colon
  TGI: > 100 µM
OVCAR-5 ovarian
  TGI: > 100 µM
SK-MEL-5 melanoma
  TGI: > 100 µM
SR leukemia
  TGI: > 100 µM
U251 CNS
  TGI: > 100 µM

## O=C1C=CC2(O[C@@H](Cc3ccccc3)[C@H](Cc3ccccc3)O2)C(SC(=O)c2ccccc2)C1 (some centres undefined)
HL-60(TB) leukemia
  TGI: 4.82 µM
HOP-62 NSCLC
  TGI: 2.68 µM
K-562 leukemia
  TGI: 89.4 µM
KM12 colon
  TGI: 6.82 µM
OVCAR-5 ovarian
  TGI: 1.74 µM
SK-MEL-5 melanoma
  TGI: 3.16 µM
SR leukemia
  TGI: 0.807 µM
U251 CNS
  TGI: 2.56 µM

## CN(N)C(=O)NCCCl
HL-60(TB) leukemia
  TGI: > 100 µM
HOP-62 NSCLC
  TGI: > 100 µM
K-562 leukemia
  TGI: > 100 µM
KM12 colon
  TGI: > 100 µM
OVCAR-5 ovarian
  TGI: > 100 µM
SK-MEL-5 melanoma
  TGI: > 100 µM
SR leukemia
  TGI: > 100 µM
U251 CNS
  TGI: > 100 µM

## CC(=O)c1ccc(NC(=O)/C(=N\NC(N)=O)C(C#N)CC(C)(C)C=O)cc1 (centres undefined)
DMS 114 small cell lung
  TGI: > 100 µM
HL-60(TB) leukemia
  TGI: > 100 µM
HOP-62 NSCLC
  TGI: > 100 µM
K-562 leukemia
  TGI: > 100 µM
KM12 colon
  TGI: > 100 µM
KM20L2 colon
  TGI: > 100 µM
LXFL 529 NSCLC
  TGI: > 100 µM
M19-MEL melanoma
  TGI: > 100 µM
OVCAR-5 ovarian
  TGI: > 100 µM
SK-MEL-5 melanoma
  TGI: > 100 µM
SR leukemia
  TGI: > 100 µM
U251 CNS
  TGI: > 100 µM
XF 498 CNS
  TGI: > 100 µM

## COc1ccc(N2CCN(c3ccc4c(c3)NCC(=O)N4)CC2)cc1
HL-60(TB) leukemia
  TGI: 47.5 µM
HOP-62 NSCLC
  TGI: > 100 µM
K-562 leukemia
  TGI: > 100 µM
KM12 colon
  TGI: 49 µM
OVCAR-5 ovarian
  TGI: > 100 µM
SK-MEL-5 melanoma
  TGI: > 100 µM
SR leukemia
  TGI: 44.4 µM
U251 CNS
  TGI: 68.6 µM

## COc1ccc(C2C(C(=O)O)=C(COC(C)=O)Oc3cc4c(cc32)OCO4)cc1 (centres undefined)
DMS 114 small cell lung
  TGI: > 100 µM
HL-60(TB) leukemia
  TGI: > 100 µM
HOP-62 NSCLC
  TGI: > 100 µM
K-562 leukemia
  TGI: > 100 µM
KM20L2 colon
  TGI: > 100 µM
M19-MEL melanoma
  TGI: > 100 µM
SK-MEL-5 melanoma
  TGI: > 100 µM
U251 CNS
  TGI: > 100 µM
XF 498 CNS
  TGI: > 100 µM

## N#CC1N(C(=O)c2ccc(F)cc2)c2ccccc2N1C(=O)c1ccc(F)cc1
HL-60(TB) leukemia
  TGI: > 100 µM
HOP-62 NSCLC
  TGI: > 100 µM
K-562 leukemia
  TGI: > 100 µM
KM12 colon
  TGI: > 100 µM
OVCAR-5 ovarian
  TGI: > 100 µM
SK-MEL-5 melanoma
  TGI: 63.2 µM
SR leukemia
  TGI: > 100 µM
U251 CNS
  TGI: > 100 µM

## CC1=CC(=O)c2cccc(NC3=NCCO3)c21
HL-60(TB) leukemia
  TGI: 41.2 µM
HOP-62 NSCLC
  TGI: > 100 µM
K-562 leukemia
  TGI: > 100 µM
KM12 colon
  TGI: 90.5 µM
OVCAR-5 ovarian
  TGI: > 100 µM
SK-MEL-5 melanoma
  TGI: 42.3 µM
SR leukemia
  TGI: 91.6 µM
U251 CNS
  TGI: > 100 µM

## CC(C)OC(=O)c1ccc(CCC2=CC(=O)C(Br)=CC2=O)cc1
HL-60(TB) leukemia
  TGI: 9.25 µM
HOP-62 NSCLC
  TGI: 63.1 µM
K-562 leukemia
  TGI: 9.12 µM
KM12 colon
  TGI: 26.5 µM
OVCAR-5 ovarian
  TGI: 42.1 µM
SK-MEL-5 melanoma
  TGI: 25.7 µM
SR leukemia
  TGI: > 100 µM
U251 CNS
  TGI: 29.8 µM

## Cc1nc2ccccc2c(=O)n1NC(=O)Cc1ccccc1
HL-60(TB) leukemia
  TGI: > 100 µM
HOP-62 NSCLC
  TGI: > 100 µM
K-562 leukemia
  TGI: > 100 µM
KM12 colon
  TGI: > 100 µM
OVCAR-5 ovarian
  TGI: > 100 µM
SK-MEL-5 melanoma
  TGI: > 100 µM
SR leukemia
  TGI: > 100 µM
U251 CNS
  TGI: > 100 µM

## COC(=O)C1(NC(=O)C(N)CC(=O)O)C(C)C1C (centres undefined)
HL-60(TB) leukemia
  TGI: > 100 µM
HOP-62 NSCLC
  TGI: > 100 µM
K-562 leukemia
  TGI: > 100 µM
KM12 colon
  TGI: > 100 µM
OVCAR-5 ovarian
  TGI: > 100 µM
SK-MEL-5 melanoma
  TGI: > 100 µM
SR leukemia
  TGI: > 100 µM
U251 CNS
  TGI: > 100 µM

## COC(=O)C[C@H](COCc1ccccc1)NC(=O)C[C@H](COCc1ccccc1)NC(=O)C[C@H](COCc1ccccc1)NC(=O)OC(C)(C)C
HL-60(TB) leukemia
  TGI: > 100 µM
HOP-62 NSCLC
  TGI: 48 µM
K-562 leukemia
  TGI: > 100 µM
KM12 colon
  TGI: > 100 µM
OVCAR-5 ovarian
  TGI: > 100 µM
SK-MEL-5 melanoma
  TGI: > 100 µM
SR leukemia
  TGI: > 100 µM
U251 CNS
  TGI: > 100 µM
